Experiments:
[1] = Dynamic vapor sorption (DVS) testing of salt forms; type: physicochemical
Protocol: Dynamic vapor sorption (DVS) testing was performed on several salt forms and sorption and desorption results under various relative humidity (RH) conditions are shown in Table 3.

[2] = Equilibrium solubility testing of salt forms; type: physicochemical
Protocol: Solubility testing was performed on several salt forms and results for free compound (mg) in media (ml) (represented as mg/ml) at equilibrium solubility are shown in Table 4. SIF refers to simulated intestinal fluid.

Structure (SMILES) | Sorption ([1]; 0-90% RH) | Desorption ([1]; 90-0% RH) | Sorption ([1]; 80-90% RH) | Sorption ([1]; 0-60% RH) | Sorption ([1]; 60-70% RH) | Sorption ([1]; 70-80% RH) | other results
CP(=O)(O)C(C(=O)N/C=C/c1ccc(F)c(F)c1)c1csc2ccc(Cl)cc12.NC(CO)(CO)CO (centres unmarked) [Form B2] | 0-90% RH: 2.085% | 90-0% RH: 2.231% |  |  |  |  | 
CP(=O)(O)C(C(=O)N/C=C/c1ccc(F)c(F)c1)c1csc2ccc(Cl)cc12.NC(CO)(CO)CO (centres unmarked) [Form B1] |  |  |  |  |  |  | Equilibrium solubility, free compound (mg) in media (ml) ([2]; pH 1.5): 1.7 mg/mL; Equilibrium solubility, free compound (mg) in media (ml) ([2]; pH 4.47): 42.2 mg/mL; Equilibrium solubility, free compound (mg) in media (ml) ([2]; pH 4.78): 14.6 mg/mL
CNC[C@H](O)[C@@H](O)[C@H](O)[C@H](O)CO.CP(=O)(O)C(C(=O)N/C=C/c1ccc(F)c(F)c1)c1csc2ccc(Cl)cc12 (centres unmarked) [Form C2] | 0-90% RH: 5.52% | 90-0% RH: 6.66% | 80-90% RH: 1.84% |  |  |  | Sorption ([1]; 0-80% RH): 0-80% RH: 3.68%; Desorption ([1]; 10-0% RH): 10-0% RH: 2.75%; Desorption ([1]; 90-10% RH): 90-10% RH: 3.91%; Solubility (remained in solution; equilibrium solubility could not be determined) ([2]; media not stated): > 232 mg/mL
CP(=O)([O-])C(C(=O)N/C=C/c1ccc(F)c(F)c1)c1csc2ccc(Cl)cc12.[K+] (centres unmarked) [Form F2] | 0-90% RH: 11.35% | 90-0% RH: 16.81% | 80-90% RH: 8.59% | 0-60% RH: 0.00% | 60-70% RH: 0.30% | 70-80% RH: 2.46% | 
CO.CP(=O)(O)C(C(=O)N/C=C/c1ccc(F)c(F)c1)c1csc2ccc(Cl)cc12 (centres unmarked) [Form A] | 0-90% RH: 2.94% |  |  |  |  |  | Sorption ([1]; 0-30% RH): 0-30% RH: 0.34%; Desorption ([1]; 30-0% RH): 30-0% RH: 7.14%; Sorption ([1]; 30-90% RH): 30-90% RH: 2.60%; Desorption ([1]; 90-30% RH): 90-30% RH: 1.48%; Equilibrium solubility, free compound (mg) in media (ml) ([2]; media 0.1N HCL, pH 1.50 (A), 1.40 (Compound 1b), 1.51 (B1)): 5.7 mg/mL; Equilibrium solubility, free compound (mg) in media (ml) ([2]; media 0.1N NaOH, pH 4.47 (A), 11.78 (Compound 1b), 8.88 (B1)): 46.5 mg/mL; Equilibrium solubility, free compound (mg) in media (ml) ([2]; media SIF (simulated intestinal fluid), pH 4.78 (A), 7.85 (Compound 1b), 7.65 (B1)): 18.7 mg/mL
CP(=O)([O-])C(C(=O)N/C=C/c1ccc(F)c(F)c1)c1csc2ccc(Cl)cc12.[K+] (centres unmarked) [Form F3] | 0-90% RH: 11.35% | 90-0% RH: 16.81% | 80-90% RH: 8.59% | 0-60% RH: 0.00% | 60-70% RH: 0.30% | 70-80% RH: 2.46% | 
CP(=O)([O-])C(C(=O)N/C=C/c1ccc(F)c(F)c1)c1csc2ccc(Cl)cc12.[K+] (centres unmarked) [Form F1] | 0-90% RH: 11.35% | 90-0% RH: 16.81% | 80-90% RH: 8.59% | 0-60% RH: 0.00% | 60-70% RH: 0.30% | 70-80% RH: 2.46% | 
